Starred links: 1 amine or outer side, 2 acyl side, 3 side chain; linkers in the order of their positions; H or OH if unused. Positions of bridges follow the written chain, without caps; N, C: chain ends. Non-standard residues stand in square brackets, D forms with d. Residues, ends and D or L forms follow the SMILES beside them. ξ: configuration not given here. *: point of attachment. pTerphenylCO(4''-OnC5H11) = CCCCCOc1ccc(-c2ccc(-c3ccc(C(=O)*)cc3)cc2)cc1; Orn(4R-OH,5R-OH) = O=C([C@H](C[C@@H](O)[C@@H](O)N[*:3])N[*:1])[*:2]; hTyr(3S-OH,4S-OH) = N[C@H](C(=O)O)[C@H](O)[C@@H](O)c1ccc(O)cc1; Pro(3S-OH,4S-Me) = C[C@H]1CN[C@H](C(=O)O)[C@H]1O; ξPro(4R-OH) = O=C(O)C1C[C@@H](O)CN1
Tested on: Human Renal Glomerular Endothelial Cells (HRGEC)
Assay: Oxygen and glucose deprivation followed by replenishment, cell survival (calcein AM), HRGEC
Format: cell-based
Method: Anidulafungin and micafungin were tested on Human Renal Glomerular Endothelial Cells (HRGEC, Innoprot P10665), on Human Renal Proximal Tubular Epithelial Cells (HRPTEpiC, Innoprot P10662), on Human Astrocytes (HA, caltag SC-1800), on Human Cardiac Microvascular Endothelial Cells (HCMEC, Caltag SC-6000), on Human Hepatic Sinusoidal Endothelial Cells (HHSEC, Caltag SC-5000), on Rat Primary Kidney Glomerular Endothelial cells (Cellbiologics, RN-6014G) and on Bovine Brain Microvascular Endothelial Cells (BBMEC, Caltag SC-B100).
In a first phase, these isolated, purified and cryopreserved cells are thawed and multiplied according to the supplier's recommendations in T75 or T175 flasks pre-coated with 2 μg of fibronectin/[…] (CORNING) for HRGEC, HCMEC, HHSEC and BBMEC, or 2 μg poly-L-lysin/cm^2 (Caltag SC-0403) for HRPTEpiC and HA, or 15 mL/flask 175 cm^2 gelatin-based solution (Cellbiologics) in the presence of endothelial cell supplemented growth medium ECM (P60104, INNOPROT, Caltag, SC-1001) for HRGEC, HCMEC, HHSEC, RPKGEC or BBMEC, or astrocyte cell supplemented growth medium AM (Caltag SC-1801) for HA or epithelial cell supplemented growth medium EpiCM (P60106, INNOPROT) for HRPTEpiC, at 37° C. under 5% CO2 and saturated humidity until their confluency. They are then harvested by trypsinization according to the method described by the supplier for exactly 5 minutes and then reseeded in new flasks a maximum of three times.
To carry out the oxygen and glucose deprivation test followed by their replenishment, the cells will be seeded in 96-well black plates with transparent flat bottom (GREINER). Once a sufficient number of cells has been obtained to allow seeding of 2000 to 15000 cells per well of 96-well plates depending on the cell type, the cells are seeded in these 96-well plates previously coated with an extracellular matrix as listed above for the flasks. The cells are cultured for 5 to 8 days according to the cell type, in the presence of the same growth medium as in the flask as described above except for HRGEC and HRPTEpiC for which DMEM (DUTSCHER) with 1 g/L of supplemented glucose is used, at 37° C. under 5% CO2 and saturated humidity to obtain confluency.
On the first day of oxygen and glucose deprivation, (5th, 6th, 7th or 8th day of culture), the culture conditions are drastically changed. The medium of all plates is removed and replaced by DMEM (DUTSCHER) medium without glucose and supplemented only with 1% penicillin-streptomycin (DUTSCHER). Anidulafungin or micafungin dissolved in dimethyl sulfoxide (DMSO) is then added to each well at the desired concentration, resulting in a maximum of 1% DMSO, and the plates are placed under hypoxia at <1% 02 and 5% CO2 at 37° C. for 24 hours of culture. Each compound was tested in a concentration range.
After 24 hours, the growth medium is changed and replaced by a richer medium, DMEM (DUTSCHER) at 1 g/L glucose and 2% FBS (INNOPROT) and 1% penicillin-streptomycin (DUTSCHER). These media will have been pre-equilibrated at 37° C. in advance. The cells are then returned to culture at 37° C. under 20% 02 and 5% CO2 for 22h.
After 22 hours of reoxygenation, the potential protective effect of anidulafungin or micafungin is measured by a cell viability test using calcein AM (CORNING), which is a dye substrate. The calcein AM can easily cross the cell membrane of the viable cells. The AM ester groups mask the part of the molecule that chelates calcium. Once inside the cells, the (non-fluorescent) calcein AM is hydrolyzed to (fluorescent) calcein by endogenous esterases. The resulting calcein molecule binds to calcium inside the cell and remains trapped inside the cell. These molecules emit strong green fluorescence when subjected to […] of a particular wavelength (495 nm). Since dead cells lack esterase activity, only living cells are labelled.
This cell viability test is performed in two steps. […]

[1] = [Anidulafungin] log μM 0.7781513
[2] = [Anidulafungin] log μM 1.079181
[3] = [Anidulafungin] log μM 1.255273

`CCCCCOc1ccc(-c2ccc(-c3ccc(C(=O)N[C@H]4C[C@@H](O)[C@@H](O)NC(=O)[C@@H]5[C@@H](O)[C@@H](C)CN5C(=O)[C@H]([C@@H](C)O)NC(=O)[C@H]([C@H](O)[C@@H](O)c5ccc(O)cc5)NC(=O)C5C[C@@H](O)CN5C(=O)[C@H]([C@@H](C)O)NC4=O)cc3)cc2)cc1` (stereo partly drawn) [Anidulafungin] ({pTerphenylCO(4''-OnC5H11)}-[Orn(4R-OH,5R-OH)]T[ξPro(4R-OH)][hTyr(3S-OH,4S-OH)]T[Pro(3S-OH,4S-Me)]; lactam 1-C) was tested, and the “Globalfluo assay 1” value ([Anidulafungin] log μM 0) was 1595273 arbitrary units, the “Globalfluo assay 2” value ([Anidulafungin] log μM 0) was 2299957 arbitrary units and the “Globalfluo assay 3” value ([Anidulafungin] log μM 0) was 2320330 arbitrary units. The Mean globalfluo ([Anidulafungin] log μM 0) was 2071853 arbitrary units, the “Survival rate (%)” value ([Anidulafungin] log μM 0) was −6% and the “Globalfluo assay 1” value ([Anidulafungin] log μM 0.30103) was 3108717 arbitrary units. For the same compound, the “Globalfluo assay 2” value ([Anidulafungin] log μM 0.30103) was 8079028 arbitrary units, the “Globalfluo assay 3” value ([Anidulafungin] log μM 0.30103) was 4587276 arbitrary units and the Mean globalfluo ([Anidulafungin] log μM 0.30103) was 5258340 arbitrary units. The “Survival rate (%)” value ([Anidulafungin] log μM 0.30103) was 7%, the “Globalfluo assay 1” value ([Anidulafungin] log μM 0.60206) was 6404501 arbitrary units and the “Globalfluo assay 2” value ([Anidulafungin] log μM 0.60206) was 5391467 arbitrary units. The “Globalfluo assay 3” value ([Anidulafungin] log μM 0.60206) was 4055726 arbitrary units, the Mean globalfluo ([Anidulafungin] log μM 0.60206) was 5283898 arbitrary units and the “Survival rate (%)” value ([Anidulafungin] log μM 0.60206) was 7%. For the same compound, the “Globalfluo assay 1” value [1] was 1844220 arbitrary units, the “Globalfluo assay 2” value [1] was 8446890 arbitrary units and the “Globalfluo assay 3” value [1] was 6499110 arbitrary units. The Mean globalfluo [1] was 5596740 arbitrary units, the “Survival rate (%)” value [1] was 8% and the “Globalfluo assay 1” value ([Anidulafungin] log μM 0.90309) was 7152564 arbitrary units. For the same compound, the “Globalfluo assay 2” value ([Anidulafungin] log μM 0.90309) was 8021501 arbitrary units, the “Globalfluo assay 3” value ([Anidulafungin] log μM 0.90309) was 6792572 arbitrary units and the Mean globalfluo ([Anidulafungin] log μM 0.90309) was 7322212 arbitrary units. For the same compound, the “Survival rate (%)” value ([Anidulafungin] log μM 0.90309) was 15%, the “Globalfluo assay 1” value ([Anidulafungin] log μM 1) was 8082278 arbitrary units and the “Globalfluo assay 2” value ([Anidulafungin] log μM 1) was 8981812 arbitrary units. For the same compound, the “Globalfluo assay 3” value ([Anidulafungin] log μM 1) was 10460790 arbitrary units, the Mean globalfluo ([Anidulafungin] log μM 1) was 9174960 arbitrary units and the “Survival rate (%)” value ([Anidulafungin] log μM 1) was 23%. The “Globalfluo assay 1” value [2] was 12175690 arbitrary units, the “Globalfluo assay 2” value [2] was 10104310 arbitrary units and the “Globalfluo assay 3” value [2] was 9396440 arbitrary units. The Mean globalfluo [2] was 10558813 arbitrary units, the “Survival rate (%)” value [2] was 28% and the “Globalfluo assay 1” value ([Anidulafungin] log μM 1.20412) was 12170420 arbitrary units. The “Globalfluo assay 2” value ([Anidulafungin] log μM 1.20412) was 9545764 arbitrary units, the “Globalfluo assay 3” value ([Anidulafungin] log μM 1.20412) was 9735499 arbitrary units and the Mean globalfluo ([Anidulafungin] log μM 1.20412) was 10483894 arbitrary units. For the same compound, the “Survival rate (%)” value ([Anidulafungin] log μM 1.20412) was 28%, the “Globalfluo assay 1” value [3] was 10855790 arbitrary units and the “Globalfluo assay 2” value [3] was 12347330 arbitrary units. For the same compound, the “Globalfluo assay 3” value [3] was 7837444 arbitrary units, the Mean globalfluo [3] was 10346855 arbitrary units and the “Survival rate (%)” value [3] was 27%. For the same compound, the “Globalfluo assay 1” value ([Anidulafungin] log μM 1.30103) was 10143140 arbitrary units, the “Globalfluo assay 2” value ([Anidulafungin] log μM 1.30103) was 10354290 arbitrary units and the “Globalfluo assay 3” value ([Anidulafungin] log μM 1.30103) was 10227990 arbitrary units. The Mean globalfluo ([Anidulafungin] log μM 1.30103) was 10241807 arbitrary units and the “Survival rate (%)” value ([Anidulafungin] log μM 1.30103) was 27%.

Reference: patent US11458189B2, “Cytoprotective drugs” (BALMES TRANSPLANTATION, priority 2017, dated 2022)
